Results on 9 compounds are retold here after ChEMBL document CHEMBL3425400, “Is RK-682 a promiscuous enzyme inhibitor? Synthesis and in vitro evaluation of protein tyrosine phosphatase inhibition of racemic RK-682 and analogues” (Eur J Med Chem, 2015).

SMILES strings stand for the structures.

The target in one series is T1, Low molecular weight phosphotyrosine protein phosphatase (Homo sapiens, UniProt P24666).
T1 sequence (P24666 whole entry): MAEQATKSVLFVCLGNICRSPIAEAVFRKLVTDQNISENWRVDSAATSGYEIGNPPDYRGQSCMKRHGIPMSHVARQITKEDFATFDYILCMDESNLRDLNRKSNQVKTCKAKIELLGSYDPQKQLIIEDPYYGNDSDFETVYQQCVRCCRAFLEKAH
The series can be described thus: Inhibition of full length 6-His-N-terminal tagged human LMW-PTP expressed in Escherichia coli BL21 (DE3) cells assessed as pNP formation using pNPP as substrate incubated for 15 mins prior to substrate addition by plate reader analysis.
The term IC50 denotes the concentration needed to halve the response being measured. Regarding `CCCCCCCCCCCCCCCC(=O)C1=C(O)C(COC(=O)c2ccc(C(=O)c3ccccc3)cc2)OC1=O` (stereo unspecified), the IC50 came out at 3.8 µM.
As to `C=C1OC(=O)C(C(=O)CCCCCCCCCCCCCCC)=C1O`, the IC50 stood at 2.5 µM.
For the compound `CCCCCCCCCC(=O)C1=C(O)OC(C)(C)OC1=O`, the IC50 was over 100 µM.
`CCCCCCCCCCCCCCCC(=O)C1=C(O)C(COC(=O)c2ccccc2C(=O)c2ccccc2)OC1=O` (stereo unspecified): the IC50 is 10.1 µM.
For `CCCCCCCCCCCCCCCC(=O)C1=C(O)OC2(CCCC2)OC1=O`, the IC50 stood at 9.6 µM.
Still for that read-out and setting: under `CCCCCCCCCCCCCCCC(=O)C1=C(O)OC(CC)(CC)OC1=O` stands over 100 µM.
Same read-out and setting: the figure for `CCCCCCCCCCCCCCCC(=O)C1=C(O)OC(C)(CC)OC1=O` (stereo unspecified) is 29.3 µM; for `CCCCCCCCCCCCCCCC(=O)C1=C(O)C(COS(C)(=O)=O)OC1=O` (stereo unspecified) it is 3.3 µM; for `CCCCCCCCCCCCCCCC(=O)C1=C(O)C(COC(C)=O)OC1=O` (stereo unspecified) it is 10 µM.

A further series deals with T2, Tyrosine-protein phosphatase non-receptor type 1 (Homo sapiens, UniProt P18031).
T2 sequence (P18031 whole entry): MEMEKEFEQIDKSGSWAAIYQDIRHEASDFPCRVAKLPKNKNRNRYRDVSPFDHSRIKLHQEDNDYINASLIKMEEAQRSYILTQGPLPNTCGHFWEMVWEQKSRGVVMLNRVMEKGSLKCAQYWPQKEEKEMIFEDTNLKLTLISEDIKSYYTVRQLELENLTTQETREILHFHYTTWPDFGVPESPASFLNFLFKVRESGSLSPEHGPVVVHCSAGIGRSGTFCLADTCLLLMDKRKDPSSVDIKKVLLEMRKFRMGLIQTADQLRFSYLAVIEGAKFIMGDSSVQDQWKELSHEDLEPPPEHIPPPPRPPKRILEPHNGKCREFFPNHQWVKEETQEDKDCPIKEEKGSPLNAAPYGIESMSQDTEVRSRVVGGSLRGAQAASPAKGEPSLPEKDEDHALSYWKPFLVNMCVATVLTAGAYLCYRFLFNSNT
As to the kind of experiment: Inhibition of 6-His-N-terminal tagged human PTP1B expressed in Escherichia coli BL21 (DE3) cells assessed as pNP formation using pNPP as substrate incubated for 15 mins prior to substrate addition by plate reader analysis.
For `CCCCCCCCCCCCCCCC(=O)C1=C(O)C(COC(=O)c2ccc(C(=O)c3ccccc3)cc2)OC1=O` (stereo unspecified), the IC50 was found to be 300 nM.
The same measure, in the same setting: the figure for `C=C1OC(=O)C(C(=O)CCCCCCCCCCCCCCC)=C1O` is 400 nM; for `CCCCCCCCCC(=O)C1=C(O)OC(C)(C)OC1=O` it is 28700 nM.
As to `CCCCCCCCCCCCCCCC(=O)C1=C(O)C(COC(=O)c2ccccc2C(=O)c2ccccc2)OC1=O` (stereo unspecified), the IC50 was determined as 500 nM.
Take `CCCCCCCCCCCCCCCC(=O)C1=C(O)OC2(CCCC2)OC1=O`: the IC50 was 800 nM.
The same measure, in the same setting: under `CCCCCCCCCCCCCCCC(=O)C1=C(O)OC(CC)(CC)OC1=O` stands 1100 nM.
`CCCCCCCCCCCCCCCC(=O)C1=C(O)OC(C)(CC)OC1=O` (stereo unspecified): the IC50 was found to be 800 nM.
For the compound `CCCCCCCCCCCCCCCC(=O)C1=C(O)C(COS(C)(=O)=O)OC1=O` (stereo unspecified), the 50% inhibitory concentration (IC50) amounted to 400 nM.
On the same count and under the same terms, the figure for `CCCCCCCCCCCCCCCC(=O)C1=C(O)C(COC(C)=O)OC1=O` (stereo unspecified) is 400 nM.

A further series has as its target T3, M-phase inducer phosphatase 2 (Homo sapiens, UniProt P30305).
T3 sequence (P30305 whole entry): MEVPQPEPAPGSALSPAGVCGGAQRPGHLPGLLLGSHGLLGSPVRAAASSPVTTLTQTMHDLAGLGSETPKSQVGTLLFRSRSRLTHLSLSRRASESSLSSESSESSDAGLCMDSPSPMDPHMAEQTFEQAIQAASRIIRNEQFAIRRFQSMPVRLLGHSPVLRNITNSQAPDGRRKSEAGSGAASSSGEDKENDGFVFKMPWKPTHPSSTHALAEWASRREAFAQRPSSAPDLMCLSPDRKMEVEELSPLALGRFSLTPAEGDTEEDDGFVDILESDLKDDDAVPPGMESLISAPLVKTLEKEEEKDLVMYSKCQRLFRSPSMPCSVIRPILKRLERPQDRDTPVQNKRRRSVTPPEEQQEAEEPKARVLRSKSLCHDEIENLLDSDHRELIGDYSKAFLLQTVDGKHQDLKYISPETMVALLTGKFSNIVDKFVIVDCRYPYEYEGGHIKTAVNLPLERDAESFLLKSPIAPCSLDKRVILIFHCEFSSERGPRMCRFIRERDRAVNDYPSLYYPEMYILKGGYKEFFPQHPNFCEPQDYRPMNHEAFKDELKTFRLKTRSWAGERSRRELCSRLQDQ
The series can be described thus: Inhibition of 6-His-N-terminal tagged human CDC-25B isoform 3 catalytic domain expressed in Escherichia coli BL21 (DE3) cells assessed as pNP formation using pNPP as substrate incubated for 15 mins prior to substrate addition by plate reader analysis.
With `CCCCCCCCCCCCCCCC(=O)C1=C(O)C(COC(=O)c2ccc(C(=O)c3ccccc3)cc2)OC1=O` (stereo unspecified), the IC50 is 5.9 µM.
In the case of `C=C1OC(=O)C(C(=O)CCCCCCCCCCCCCCC)=C1O`, the IC50 came to 7.4 µM.
With `CCCCCCCCCC(=O)C1=C(O)OC(C)(C)OC1=O`, the IC50 was over 100 µM.
Regarding `CCCCCCCCCCCCCCCC(=O)C1=C(O)C(COC(=O)c2ccccc2C(=O)c2ccccc2)OC1=O` (stereo unspecified), the IC50 amounted to 6.3 µM.
For `CCCCCCCCCCCCCCCC(=O)C1=C(O)OC2(CCCC2)OC1=O`, the IC50 was 7 µM.
The same measure, in the same setting: under `CCCCCCCCCCCCCCCC(=O)C1=C(O)OC(CC)(CC)OC1=O` stands 4.6 µM.
Take `CCCCCCCCCCCCCCCC(=O)C1=C(O)OC(C)(CC)OC1=O` (stereo unspecified): the concentration for half-maximal inhibition (IC50) is 5.5 µM.
`CCCCCCCCCCCCCCCC(=O)C1=C(O)C(COS(C)(=O)=O)OC1=O` (stereo unspecified): the IC50 came to 8 µM.
In the case of `CCCCCCCCCCCCCCCC(=O)C1=C(O)C(COC(C)=O)OC1=O` (stereo unspecified), the IC50 is 10.8 µM.

System in a further series: not listed separately
The series can be described thus: Retardation factor of the compound using Hexanes:AcOEt (2:1) as solvent system by column chromatography. The format is physicochemical.
`CCCCCCCCCC(=O)C1=C(O)OC(C)(C)OC1=O` registered a Rf of 0.49.
As for `CCCCCCCCCCCCCCCC(=O)C1=C(O)OC2(CCCC2)OC1=O`, the Rf was 0.59.
Still for that read-out and setting: under `CCCCCCCCCCCCCCCC(=O)C1=C(O)OC(CC)(CC)OC1=O` stands 0.59.
`CCCCCCCCCCCCCCCC(=O)C1=C(O)OC(C)(CC)OC1=O` (stereo unspecified) yielded a Rf of 0.42.
